Tests used:
Format in all cases: cell-based
[1] = target: T1, SMARCA4 (Homo sapiens, UniProt P51532); experiment: SMARCA4 Western blot MV4-11 degradation; conditions: MV4-11 cells, 24 hours; for Dmax: read-out: SMARCA4 WB MV411 degradation 24h: Average Dmax %; for DC50: read-out: SMARCA4 WB MV411 degradation 24h: Average external-Abs DC50
T1 construct: endogenous in cells; host or cells: MV4-11
Protocol: (§1) Example 10. SMARCA2 and SMARCA 4 Western Blot MV4-11 Degradation
(§2) Cells were seeded into 6-well plates (MV4-11: 4×10^6 cells/well/1 ml) and 1 ml of 2× compound solution was added into the well to make the final concentration and the plates were mixed well and incubated for 24 hours (No cytotoxicity was observed). The cell were collected with media and spun at 3000 rpm for 5 minutes. The supernatant was aspirated and the well and the cells were washed with cold PBS once and combined for centrifugation again; the supernatant aspirated again. 200 ul pre-chilled RIPAlysis buffer (Boston BioProducts BP-115D) with protease/phosphatase inhibitor (Roche 05892791001/Roche 04906837001) was directly added into the tube to lyze the cells for 20 minutes on ice. The cell lysate were collected into EP tubes and spun at 13000 rpm for 20 minutes and 72 ul supernatant was transferred to a fresh EP tube containing 18 ul of 5× loading buffer (Beyotime Bio P0015) to make the loading samples. The samples were heated to 100° C. for 10 minutes and cooled to RT and microcentrifuged. 20 ul of samples were loaded onto SDS-PAGE gel (Novex, WG1402BOX) and the gel was run at 80 V for 20 minutes and 120 V for 1.5 hours. The samples were electrotransfer to a NC membrane using wet-transfer method with 250 mA for 2.5 hours. The membrane was blocked with LICOR blocking buffer (LI-COR, 927-50000) for 1 hour. The membrane was washed three times with TBST (CST #9997S), 5 minutes each. Incubation was performed with primary antibody prepared in blocking buffer with 0.1% Tween-20 (Solarbio, P8220) at 4° C. overnight (Anti-SMARCA2/BRM antibody (ab15597) 1:500; Anti-BRG1 antibody [EPR3912] (ab108318) 1:1000; Rabbit anti-Baf180 antibody [EPR15860] (Abcam,ab196022) 1:1000; mouse anti-beta-Actin (8H10D10) (CST #3700) 1:10000). The membrane was washed three times with TBST, 5 minutes each. Incubation with secondary antibody was performed for 1 hour at RT (anti-rabbit IgG (Licor, 926-32211) 1:5000; anti-mouse IgG (LI-COR, 926-68070) 1:5000). The membrane was washed three times with 5 minutes each and lastly the LiCOR was read.

[2] = target: T2, SMARCA2 (Homo sapiens, UniProt P51531); experiment: MSD SMARCA2 degradation in NCI-H1299 cell line; parameters: endogenous in cells; conditions: NCI-H1299 cells, 24 hours
Protocol: Example 8. MSD SMARCA2 Degradation in NCI-H1299 Cell Line
Cell Culture: Cells were Cultured in Exponential Growth Phase.
Compound Preparation and Treatment: NCI-H1299 cells were seeded into the 96-well plate at 4.0*10^4 cells per 100 ul per well. Incubate the plate in the incubator overnight. The next day, compounds were diluted to designed stock concentration by TECAN, then perform a 3 fold, 9-point dilution via transferring 15 uL compound into 30 μL DMSO using Apricot. 200 nL diluted compound from compound source plate were transferred into the 96-intermediate plate as designated by using Echo550, followed with 100 ul culture medium to make the 2× compound solution. Cell plate were changed with 80 ul of fresh culture medium and 80 ul of 2× compound solution was added into the well to achieve the final designed concentration. Cell plate was then shaken at 720 rpm for 5 min and incubated for 24 hours in the incubator.
Sample Preperation: Media was aspirated from the cultures and the plate was washed with PBS twice. 60 ul of pre-chilled PIPA lysis buffer (Boston BioProducts BP-115D) with protease inhibitor were directly added into the well to lyze the cells for 20 minutes at 4° C. Cell lysates were collected.
MSD Procedure: The MSD plate was coated with 40 ul cell lysate and incubated at 4° C. overnight. The next day, the MSD coated bare plate was washed 3 times with 150 ul 1×TBST per well, blocked with 150 ul of blocking buffer per well, and shaken for 1 hour at RT, 600 rpm. Blocking buffer was 3% Blocker A in TBST. MSD plate was then washed 3 times with 150 ul 1× TBST per well and Primary Detection antibody (Rabbit anti-SMARCA2/BRM antibody, 100 μg/ml, ab223735) was added to a final [conc.]: 0.3 ug/ml, 25 ul/well and shaken for 1 hour at RT, 600 rpm. Antibody was prepared in Antibody Detection buffer (1% Blocker A in 1×TBST). The MSD plate was then washed 3 times with 150 ul 1×TBST per well. Secondary Detection antibody (SULFO-TAG anti-species antibody) was then added to a final [conc.]: 1 ug/ml, 25 ul/well, and shaken for 1 hour at RT, 600 rpm. Antibodies were prepared in Antibody Detection buffer (1% Blocker A in 1×TBST). MSD plate was washed 3 times with 150 ul 1×TBST per well and 2× MSD reading buffer was added, 150 ul per well, and diluted from 4× with water. MSD instrument was then read.
Data Analysis: The percentage of relative level of SMARCA2 level was calculated following equation below.
LC: A2780, SMARCA2 negative cells. HC: NCI-H1299 cells treated with DMSO.

[3] = target: T2, SMARCA2; experiment: SMARCA2 Western blot MV4-11 degradation; parameters: endogenous in cells; conditions: MV4-11 cells, 24 hours
Protocol: as §1
as §2, with “The membrane was blocked with LICOR blocking buffer (LI-COR, 927-50000) for 1 hour. The membrane was washed three times with TBST (CST #9997S), 5 minutes each. Incubation was performed with primary antibody prepared in blocking buffer with 0.1% Tween-20 (Solarbio, P8220) at 4° C. overnight (Anti-SMARCA2/BRM antibody (ab15597) 1:500; Anti-BRG1 antibody [EPR3912] (ab108318) 1:1000; Rabbit anti-Baf180 antibody [EPR15860] (Abcam,ab196022) 1:1000; mouse anti-beta-Actin (8H10D10) (CST #3700) 1:10000). The membrane was washed three times with TBST, 5 minutes each. Incubation with secondary antibody was performed for 1 hour at RT (anti-rabbit IgG (Licor, 926-32211) 1:5000; anti-mouse IgG (LI-COR, 926-68070) 1:5000).” left out

[4] = target: T2, SMARCA2; experiment: MSD SMARCA2 degradation in A549 cell line; parameters: endogenous in cells; host or cells: A549; conditions: A549 cells, 24 hours
Protocol: Example 9. MSD SMARCA2 Degradation in A549 Cell Line
Cells were seeded into 96-well plates (A549 cells: 2×10^4 cells/well/100 ul media) abd incubated overnight. The next day, 200 nl compound were added into the intermediate plate with Echo (Labcyte 550) from source plate containing a 3-fold serial dilution from top concentration of 1 mM. The culture medium was changed with 80 ul of fresh medium and 80 ul of 2× compound solution was added into the well to make a final concentration of 1000 nM, 333.3 nM, 111.1 nM, 37.04 nM, 12.35 nM, 4.115 nM, 1.372 nM, 0.457 nM, 0.152 nM and 0 nM (DMSO). The wells were mixed and then incubated for 24 hours. The media was aspirated from the cultures and 60 ul pre-chilled PIPA lysis buffer (Boston BioProducts BP-115D) with protease/phosphatase inhibitor (Roche 05892791001/Roche 04906837001) was added into the well to lyze the cells for 20 minutes at 4° C. The MSD plate (L15XA) was coated with 40 ul cell lysate and incubated at 4° C. overnight. The next day, the plate was washed three times with TBST (CST #9997S), 150 ul/well. The MSD plates was blocked with 150 ul blocking buffer per well and shaked for 1 hr at RT, 600 rpm. The blocking buffer was 3% Blocker A (MSD, R93BA-4) in TBST. The MSD plate was washed three times with 150 ul/well of TBST and 25 ul/well of detection antibody (Rabbit anti-SMARCA2/BRM antibody, 100 μg/ml, ab223735) was added at final concentration of 1 ug/ml diluted in 1% Blocking buffer and shaken for 1 hour at RT, 600 rpm. The MSD plate was washed three times with 150 ul/well of TBST and 25 ul/well of SULFO-TAG anti-rabbit antibody (MSD, R32AB-1) was added at final concentration of 1 ug/ml diluted in 1% Blocking buffer and shaken for 1 hour at RT, 600 rpm. The MSD plate was washed three times with 150 ul/well of TBST and 150 ul/well of 2×MSD reading buffer diluted from 4× (MSD, R92TC-2) with water was added. Lastly, the MSD instrument was read.

T1 sequence (P51532 whole entry): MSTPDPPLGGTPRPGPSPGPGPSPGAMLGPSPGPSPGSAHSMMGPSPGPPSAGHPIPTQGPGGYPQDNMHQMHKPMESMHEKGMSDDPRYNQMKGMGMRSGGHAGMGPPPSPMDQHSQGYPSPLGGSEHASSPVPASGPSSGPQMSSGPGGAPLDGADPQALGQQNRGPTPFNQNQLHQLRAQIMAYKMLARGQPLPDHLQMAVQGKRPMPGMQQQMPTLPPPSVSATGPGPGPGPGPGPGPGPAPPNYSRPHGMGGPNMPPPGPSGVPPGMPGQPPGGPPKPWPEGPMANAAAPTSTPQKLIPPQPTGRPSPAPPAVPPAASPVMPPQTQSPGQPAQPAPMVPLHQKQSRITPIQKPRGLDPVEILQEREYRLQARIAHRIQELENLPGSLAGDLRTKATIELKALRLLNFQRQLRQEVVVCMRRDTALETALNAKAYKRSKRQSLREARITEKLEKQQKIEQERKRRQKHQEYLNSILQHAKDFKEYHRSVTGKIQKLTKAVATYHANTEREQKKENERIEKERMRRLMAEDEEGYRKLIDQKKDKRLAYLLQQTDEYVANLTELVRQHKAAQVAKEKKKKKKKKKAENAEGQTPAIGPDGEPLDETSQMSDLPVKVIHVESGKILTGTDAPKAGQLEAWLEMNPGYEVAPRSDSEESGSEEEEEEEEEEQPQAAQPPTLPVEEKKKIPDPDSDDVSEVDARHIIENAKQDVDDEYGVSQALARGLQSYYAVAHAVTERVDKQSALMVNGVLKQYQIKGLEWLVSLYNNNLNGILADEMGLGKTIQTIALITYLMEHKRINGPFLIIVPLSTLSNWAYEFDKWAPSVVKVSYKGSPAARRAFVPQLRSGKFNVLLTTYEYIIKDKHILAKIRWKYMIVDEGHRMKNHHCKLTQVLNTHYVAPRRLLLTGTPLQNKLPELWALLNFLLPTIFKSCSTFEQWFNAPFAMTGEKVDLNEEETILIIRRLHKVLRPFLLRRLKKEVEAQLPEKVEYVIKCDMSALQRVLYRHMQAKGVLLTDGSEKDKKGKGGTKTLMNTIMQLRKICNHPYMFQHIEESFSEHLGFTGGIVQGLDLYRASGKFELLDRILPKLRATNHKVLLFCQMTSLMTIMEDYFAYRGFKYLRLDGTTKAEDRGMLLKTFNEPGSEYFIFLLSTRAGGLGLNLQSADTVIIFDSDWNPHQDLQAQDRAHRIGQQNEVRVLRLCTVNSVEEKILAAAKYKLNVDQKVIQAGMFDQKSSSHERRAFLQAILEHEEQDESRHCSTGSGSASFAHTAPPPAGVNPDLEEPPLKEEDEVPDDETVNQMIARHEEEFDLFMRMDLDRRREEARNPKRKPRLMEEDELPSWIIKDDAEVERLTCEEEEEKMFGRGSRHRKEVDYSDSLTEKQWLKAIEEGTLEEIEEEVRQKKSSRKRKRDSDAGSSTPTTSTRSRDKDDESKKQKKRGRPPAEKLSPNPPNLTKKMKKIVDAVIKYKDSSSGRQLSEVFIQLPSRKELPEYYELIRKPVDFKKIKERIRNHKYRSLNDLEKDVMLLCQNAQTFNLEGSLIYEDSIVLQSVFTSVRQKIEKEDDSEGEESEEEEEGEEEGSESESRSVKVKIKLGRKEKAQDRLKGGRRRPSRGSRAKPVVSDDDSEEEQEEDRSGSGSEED
T2 sequence (P51531 whole entry): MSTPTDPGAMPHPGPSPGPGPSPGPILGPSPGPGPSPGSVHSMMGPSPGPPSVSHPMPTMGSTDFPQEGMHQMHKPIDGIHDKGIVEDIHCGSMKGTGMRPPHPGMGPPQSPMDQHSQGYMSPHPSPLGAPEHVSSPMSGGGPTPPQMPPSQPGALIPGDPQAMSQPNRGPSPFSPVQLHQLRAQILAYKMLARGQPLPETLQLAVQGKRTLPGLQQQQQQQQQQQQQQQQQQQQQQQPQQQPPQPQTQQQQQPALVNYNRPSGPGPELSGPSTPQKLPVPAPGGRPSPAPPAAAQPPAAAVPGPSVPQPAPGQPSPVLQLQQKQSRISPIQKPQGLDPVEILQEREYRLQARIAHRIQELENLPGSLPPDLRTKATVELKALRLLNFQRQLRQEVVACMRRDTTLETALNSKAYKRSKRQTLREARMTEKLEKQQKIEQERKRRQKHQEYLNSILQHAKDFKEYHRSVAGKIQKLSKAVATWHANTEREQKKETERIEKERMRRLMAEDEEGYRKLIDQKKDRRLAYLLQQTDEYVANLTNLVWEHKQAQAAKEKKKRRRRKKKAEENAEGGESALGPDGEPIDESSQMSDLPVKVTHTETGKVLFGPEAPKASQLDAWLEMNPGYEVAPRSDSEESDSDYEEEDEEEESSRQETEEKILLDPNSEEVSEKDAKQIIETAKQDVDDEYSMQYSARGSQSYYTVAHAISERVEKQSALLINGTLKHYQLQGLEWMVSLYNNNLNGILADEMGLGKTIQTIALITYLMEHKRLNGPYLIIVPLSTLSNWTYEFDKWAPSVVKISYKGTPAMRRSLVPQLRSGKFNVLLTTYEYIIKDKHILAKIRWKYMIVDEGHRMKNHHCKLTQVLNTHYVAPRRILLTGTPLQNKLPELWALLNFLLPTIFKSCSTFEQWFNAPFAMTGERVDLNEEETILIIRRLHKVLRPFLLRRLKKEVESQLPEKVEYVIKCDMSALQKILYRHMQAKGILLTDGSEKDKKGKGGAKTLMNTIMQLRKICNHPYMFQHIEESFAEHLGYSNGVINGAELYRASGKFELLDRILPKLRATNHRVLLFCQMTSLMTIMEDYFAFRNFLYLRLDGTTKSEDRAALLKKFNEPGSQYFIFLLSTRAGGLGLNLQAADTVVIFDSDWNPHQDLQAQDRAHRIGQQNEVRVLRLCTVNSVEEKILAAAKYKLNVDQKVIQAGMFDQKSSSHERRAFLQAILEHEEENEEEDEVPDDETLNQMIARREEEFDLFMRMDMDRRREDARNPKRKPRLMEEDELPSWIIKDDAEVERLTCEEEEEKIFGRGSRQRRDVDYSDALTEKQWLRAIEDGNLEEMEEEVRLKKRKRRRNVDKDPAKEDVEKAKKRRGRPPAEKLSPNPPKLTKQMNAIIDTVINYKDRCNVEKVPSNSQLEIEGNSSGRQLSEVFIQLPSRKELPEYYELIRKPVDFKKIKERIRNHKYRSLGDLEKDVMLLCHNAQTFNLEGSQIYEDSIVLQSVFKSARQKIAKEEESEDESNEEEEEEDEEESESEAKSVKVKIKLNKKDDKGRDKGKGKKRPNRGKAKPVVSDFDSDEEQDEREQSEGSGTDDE

Row | Dmax [1] | DC50 [1] | Dmax [2] | Dmax ([3]; read-out: SMARCA2 WB MV411 degradation 24h: Average Dmax %) | DC50 ([3]; read-out: SMARCA2 WB MV411 degradation 24h: Average external-Abs DC50) | Dmax [4] | DC50 ([4]; read-out: SMARCA2 MSD A549 degradation 24h: Average external-Abs DC50) | SMILES
1 | < 50% | < 100 nM | < 50% |  |  |  |  | Cn1c(=O)n(C2CCC(=O)NC2=O)c2cccc(CCCCCN3CCC(c4c[nH]c5nnc(-c6ccccc6O)cc45)CC3)c21 (centres unmarked) [I-10]
2 | < 50% | < 100 nM | < 50% |  |  |  |  | Cn1c(=O)n(C2CCC(=O)NC2=O)c2ccc(CCCCCCCCCN3CCC(c4c[nH]c5nnc(-c6ccccc6O)cc45)CC3)cc21 (centres unmarked) [I-7]
3 | < 50% |  | < 50% |  |  |  |  | Cn1c(=O)n(C2CCC(=O)NC2=O)c2cccc(CCCN3CCC(c4c[nH]c5nnc(-c6ccccc6O)cc45)CC3)c21 (centres unmarked) [I-11, 3-(4-(3-(4-(3-(2-hydroxyphenyl)-7H-pyrrolo[2,3-c]pyridazin-5-yl)piperidin-1-yl)propyl)-3-methyl-2-oxo-2,3-dihydro-1H-benzo[d]imidazol-1-yl)piperidine-2,6-dione]

More lines, now with the values behind:

Row | SMILES | Dmax [1] | DC50 [1] | Dmax [2] | Dmax ([3]; read-out: SMARCA2 WB MV411 degradation 24h: Average Dmax %) | DC50 ([3]; read-out: SMARCA2 WB MV411 degradation 24h: Average external-Abs DC50) | Dmax [4] | DC50 ([4]; read-out: SMARCA2 MSD A549 degradation 24h: Average external-Abs DC50)
4 | Cn1c(=O)n(C2CCC(=O)NC2=O)c2cccc(CCCOCCCN3CCC(c4c[nH]c5nnc(-c6ccccc6O)cc45)CC3)c21 (centres unmarked) [I-6] | < 50% | 100 to 500 nM | < 50% |  |  |  | 
5 | Cc1ncsc1-c1ccc(CNC(=O)[C@@H]2C[C@@H](O)CN2C(=O)[C@@H](NC(=O)[C@H]2CC[C@H](c3cnc(N4CCC(c5c[nH]c6nnc(-c7ccccc7O)cc56)CC4)nc3)CC2)C(C)(C)C)cc1 [I-46, (2S,4R)-4-hydroxy-1-((S)-2-((1r,4S)-4-(2-(4-(3-(2-hydroxyphenyl)-7H-pyrrolo[2,3-c]pyridazin-5-yl)piperidin-1-yl)pyrimidin-5-yl)cyclohexanecarboxamido)-3,3-dimethylbutanoyl)-N-(4-(4-methylthiazol-5-yl)benzyl)pyrrolidine-2-carboxamide] | 50 to 70% | > 1000 nM |  | > 90% | < 100 nM | > 90% | < 100 nM
6 | Cc1ncsc1-c1ccc(CNC(=O)[C@@H]2C[C@@H](O)CN2C(=O)[C@@H](NC(=O)CCCCCN2CCC(c3c[nH]c4nnc(-c5ccccc5O)cc34)CC2)C(C)(C)C)cc1 [I-9] |  |  | < 50% |  |  |  | 
7 | Cc1ncsc1-c1ccc(CNC(=O)[C@@H]2C[C@@H](O)CN2C(=O)[C@@H](NC(=O)CCCCCCCN2CCC(c3c[nH]c4nnc(-c5ccccc5O)cc34)CC2)C(C)(C)C)cc1 [I-12] |  |  | < 50% |  |  |  | 
8 | Cn1c(=O)n(C2CCC(=O)NC2=O)c2cccc(CN3CCC(c4c[nH]c5nnc(-c6ccccc6O)cc45)CC3)c21 (centres unmarked) [I-13] | < 50% | < 100 nM | < 50% |  |  |  | 
9 | Cc1ncsc1-c1ccc(CNC(=O)[C@@H]2C[C@@H](O)CN2C(=O)[C@@H](NC(=O)CCCCCCCCCN2CCC(c3c[nH]c4nnc(-c5ccccc5O)cc34)CC2)C(C)(C)C)cc1 [I-8] |  |  | 50 to 70% |  |  |  | 

— US12521438B2, “SMARCA degraders and uses thereof” (Kymera Therapeutics, Inc., priority 2019, dated 2026)
